From patent publication US20110009628A1, “Compounds and Compositions for Modulating Lipid Levels and Methods of Preparing Same” (priority 2009, published 2011) come the findings set out here.

In data set [1] the test system is LDLR mRNA expression in HepG2 cells. In words: LDLR mRNA expression in HepG2 cells, Compounds 162 and 163, real-time RT-PCR (Example 13). The class given is cell-based, human. To be noted: FIGS. 6A and 6B. On the procedure:
In FIG. 6A HepG2 cells were exposed to Compounds 162 and 163 at the indicated concentrations (x-axis) for 24 h and plotted against normalized LDLR mRNA levels (fold of control in absence of compound). In FIG. 6B, HepG2 cells were treated with 20 μM of each compound for the indicted times (x-axis) and plotted against normalized LDLR mRNA levels (fold of control at 24 h).
The time- and dose-dependent effects of the enantiomers of Compound 127 (Compounds 162 and 163) on LDLR mRNA expression were examined using quantitative real-time RT-PCR assays (FIGS. 6A and 6B). HepG2 cells were treated with Compound 162 and Compound 163 at indicated concentrations for various times. Total RNA was isolated and […] was used to generate cDNA in a reaction containing random primers and M-MLV at 37° C. for 1 h in a volume of 25 μL. Real-time PCR was performed on the cDNA using MCEP REALPLEX 2 SYSTEM (Eppendorf) and Universal MasterMix (Applied Biosystems). Human LDLR and GAPDH Pre-Developed TaqMan Assay Reagents (Applied Biosystems) were used to assess the levels of mRNA expressions in HepG2. The levels of LDLR mRNA were normalized to that of GAPDH. Each RNA samples was assayed in triplicate. The fold activity was calculated by dividing mRNA abundance in compound treated cells with that of control.
(In general: Real-time PCR tracks product formation cycle by cycle.)

Data set [2] has as its system PCSK9 protein expression in HepG2 cells. As to the kind of experiment: Western blot of PCSK9 protein in HepG2 cells, Compounds 162 and 163. To be noted: 20 μM, time-dependent, FIG. 7. Format: cell-based, human. On the procedure: (§1) FIG. 7 is a Western blot analysis of LDLR and PCSK9 expression in HepG2 cells. HepG2 cells seeded in 12-well culture plates were cultured in 0.5% FBS MEM overnight. Compounds 162 and 163 at 20 μM were added to cells for the indicated times. Untreated and treated cells were harvested at the same indicated time points. Total cell lysates were isolated and 50 μg per sample was analyzed for LDLR and PCSK9 protein abundance by western blotting. The membrane was reprobed with anti-actin antibody to examine the equal loading of cell lysates.
Recent studies have identified the liver secreted serine protease PCSK9 (proprotein convertase subtilisin type 9) as a natural inhibitor of LDLR protein expression that degrades hepatic LDLR protein, thus increasing circulating LDL-C levels.
A general note: A western blot detects proteins with antibodies after separation by electrophoresis.

Data set [3] relates to LDLR protein expression in HepG2 cells. In words: Western blot of LDLR protein in HepG2 cells, Compounds 162 and 163. The following applies: 20 μM, 16 or 24 hours, FIG. 7. Format: cell-based, human. On the procedure:
as §1
Chicken anti-LDLR was purchased from Abcam. HepG2 cells cultured in 60-mm dishes were incubated overnight in medium containing 0.5% fetal bovine serum prior to the addition of compounds at 20 μM concentration. After 16 or 24 hours of treatment, total cell lysate was isolated and 50 μg of protein was separated on SDS-PAGE and transferred to nitrocellulose membrane for immunoblotting with anti-LDLR.

Data set [4] is described as follows: in vivo. The following applies: hamster, po. Also on record: species or system Golden Syrian hamsters. On the procedure: For testing the efficacy of Compound 141 (phosphate salt of Compound 127) or its enantiomers (Compound 162/Compound 163) the following suspension formulation procedure was developed to make 100 ml of Compound 141 in suspension at 10 mg/ml concentration in 0.1 M tartaric buffer pH. 3 containing 0.5% hydroxypropylcellulose H-type (HPC-H):
Step 1: 1.50 g L-(+)-tartaric acid was dissolved in 100 mL water to prepare a tartaric acid solution. The solution was adjusted to pH 3 with 1.2 mL 5N NaOH solution to provide the tartaric acid buffer (100 mM). Step 2: 0.5 g HPC-H powder was added to 10 mL tartaric acid buffer (100 mM) at 50° C. The slurry was stirred for 30 minutes, and then diluted with 90 mL tartaric acid buffer (100 mM) at room temperature to provide 0.5% HPC-H. Agitation was continued until all particles were dissolved and the solution was completely free of gels. Step 3: 1.20 g Compound 141 (or Compound 162 or Compound 163) and 1.20 g mannitol were mixed and ground through a 120 mesh sieve, then the mixture was ground slightly again. The mixture was dispersed in 100 mL 0.5% HPC-H-L-(+)-Tartaric acid buffer (pH=3), then stirred until the drug dispersed evenly. The final pH was 2.6. All the above procedures were completed at room temperature (˜25° C.). The final concentration of Compound 141 was 10 mg/ml after correction of the salt weight.
The pharmacokinetic profile and bioavailability of Compound 141 (phosphate salt of Compound 127) in male Wistar rats following single intravenous (iv) and oral administration (p.o.) were measured according to the procedures of Example 4 and are summarized in Table 11. The pharmacokinetic profile of Compound 162 in male Golden Syrian masters following oral administration (pox) is summarized in Table 12.

Data set [5] has as its system LDLR mRNA expression in HepG2 cells. As to the kind of experiment: LDLR mRNA expression in HepG2 cells, semi-quantitative RT-PCR. The class given is cell-based, human. To be noted: 8 hours, FIG. 1. On the procedure: HepG2 cells obtained from American Tissue Culture Collection (Manassas, Va., USA) were seeded in 6-well culture plates at a density of 0.8×10^6 cells/well cultured in EMEM containing 0.5% FBS and were treated with each purified compound at indicated doses for 8 hours. Total RNA was isolated, and 2 μg per sample was reverse transcribed with random primers using M-MLV (Promega) at 37° C. for 1 hour. PCR was carried out at 94° C. for 30 sec, 60° C. for 30 sec, and 72° C. for 30 sec with initial activation of the enzyme at 94° C. for 1 minute. Thirty cycles were performed for LDLR and GAPDH. PCR was performed using primers HLDLR-up and HLDLR-lo for LDLR and primers HGAPDH-up and HGAPDH-lo for GAPDH. The PCR products were separated on a 1% agarose gel and the band intensity was quantitated. LDLR mRNA levels were corrected by measuring GAPDH mRNA levels.

For data set [6], the system named is LDLR ligand uptake activity in HepG2 cells. In words: DiI-LDL uptake in HepG2 cells (Example 6). Note: key: +: slightly increased fluorescent intensity over control; ++: modestly increased fluorescent intensity over control; +++: strongly increased fluorescent intensity over control. Format: cell-based, human. The following applies: 20 hours, B, compound dose ≦40 μM. On the procedure: HepG2 cells (2×10^5 cells/well) in 24-well culture plates were treated with various compounds at indicated concentrations for 20 hours. The fluorescent 1.1′-dioctadecyl-3,3,3′,3′-tetramethylindocarbocyanin perchlorate (DiI-LDL) (Biomedical Technologies, Stoughton, Mass.) at a concentration of 2 μg/mL was added to cells at the end of treatment. After 4 hours, the medium was removed, cells were washed with cold PBS, and were examined immediately under a fluorescent microscope (Nikon) at 200× amplification. The fluorescent intensity in compound-treated cells was compared to that in untreated control cells. […] In these experiments berberine chloride was used for comparison.

Data set [7] has as its system PCSK9 mRNA expression in HepG2 cells. In words: PCSK9 mRNA expression in HepG2 cells, simvastatin versus compound 91 (Example 10). Format: cell-based, human. The following applies: 24 hours, FIG. 4B. On the procedure: (§2) In yet another experiment, HepG2 cells were treated with various compounds for 24 hours at the indicated doses. Total RNA was isolated and 2 μg was used to generate cDNA in a reaction containing random primers and M-MLV at 37° C. for 1 hour in a volume of 25 μL. Real-time PCR was performed on the cDNA using MCEP REALPLEX 2 SYSTEM (Eppendorf) and Universal MasterMix (Applied Biosystems). Human LDLR and GAPDH Pre-Developed TaqMan Assay Reagents (Applied Biosystems) were used to assess the levels of mRNA expressions in HepG2. The levels of LDLR mRNA were normalized to that of GAPDH. Each RNA samples was assayed in triplicate. The abundance of LDLR mRNA in untreated cells was defined as 1, and the amounts of LDLR mRNA from compound-treated cells were plotted relative to that value in FIG. 2B. The data shown are mean±s.d.
(§3) Total RNA was harvested for quantitative real-time RT-PCR analysis using method described in Examples 5B. The fold activity was derived by dividing the amount of normalized LDLR or PCSK9 mRNA in compound-treated cells over the amount of LDLR or PCSK9 mRNA in untreated control cells.

The test system of data set [8] is LDLR mRNA expression in HepG2 cells. In words: LDLR mRNA expression in HepG2 cells, quantitative real-time RT-PCR (Example 7). The following applies: dose less than or equal to 10 μM, 24 hours. The class given is cell-based, human. The procedure, abridged: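 LDLR mRNA quantified by TaqMan real-time PCR in triplicate, normalized to GAPDH and expressed relative to untreated cells set at 1 (mean±s.d.).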

For data set [9] the test system is unchanged. As to the kind of experiment: LDLR mRNA expression in HepG2 cells, simvastatin versus compound 91 (Example 10). The class given is cell-based, human. To be noted: 24 hours, FIG. 4A. On the procedure: as §2, §3
Data set [10] concerns intracellular triglyceride in HepG2 cells. As to the kind of experiment: Reduction of intracellular triglyceride in HepG2 cells (Example 8). To be noted: B, compound dose ≦40 μM. The class given is cell-based, human. The text has this: Berberine chloride was used for comparison. The amount of TG in untreated control cells was defined as 100% and the amounts of TG in compound-treated cells were divided to that value.

Structures can show the parent of a compound that is named as a salt.

On to `COc1cc2c(cc1OC)C1Cc3ccc(OC)c(OS(=O)(=O)c4cccc(F)c4)c3CN1CC2` (single isomer, unassigned) [Compound 163, 2,3,10-Trimethoxy-5,6,7,8,13,13a-hexahydroisoquinolin[2,1-b]isoquinolin-9-yl 3-fluorobenzenesulfonate phosphate Salt (Enantiomer having negative optical rotation)], for which the “LDLR mRNA expression” value in data set [1] was “upregulate LDLR mRNA expression”. The PCSK9 cellular levels entry in data set [2] is “greatly decreased”. Further, the “LDLR mRNA and protein expression” value in data set [3] was “significantly enhance”. Besides, the “pharmacokinetic properties and bioavailability, in words” value in data set [4] was “excellent pharmacokinetic properties and good bioavailability”.
Regarding `COc1cc2c(cc1OC)[C@H]1Cc3ccc(OC)c(OC)c3CN1CC2` [14R-(+)-THP, 14R-tetrahydropalmatine, reference compound], in [5], the “effects on LDLR mRNA expression” value was “potent and dose-dependent effects”. Further, the “Activity on DiI-LDL uptake” value in [6] is on record as “++”.
For the compound `COc1cc2c(cc1OC)C1Cc3ccc(OC)c(OS(=O)(=O)c4ccccc4)c3CN1CC2` (stereo not shown) [Compound 91, 2,3,10-trimethoxy-5,6,7,8,13,13a-hexahydroisoquinolino[2,1-b]isoquinolin-9-yl benzenesulfonate], the “PCSK9 mRNA expression” value in data set [7] was “inhibits”. In addition, the “Activity on LDLR mRNA expression (Fold of control)” value in data set [8] was 3.77 ± 0.20 Fold of control. Further, the “LDLR mRNA expression” value in [9] was “dose-dependently increases”. In addition, in data set [10], the “Activity on reduction of cellular TG accumulation (% of control)” value is reported as 71.17 ± 2.23 % of control.
